Measured values: patent publication US9873904B2, “Detection of acid-producing bacteria” (3M INNOVATIVE PROPERTIES COMPANY, priority 2009, dated 2018)
Counter-ions that a name gives are not always drawn. Like-named read-outs stand apart in the source and are kept apart here.

How the values were obtained:
[1] = tested on: L. lactis subspecies lactis; assay type: cell-based, Lactococcus lactis subspecies lactis; conditions: 30 C
Text: (§1) DIFCO MRS broth was obtained from BD-Diagnostic Systems (Sparks, Md.).
(§2) Four strains of lactic acid-producing bacteria were isolated from processed meats. Two of the cultures were identified as Leuconostoc mesenteroides and Weissella viridescens, Lactococcus lactis subspecies lactis and Streptococcus oralis.
(§3) Bromcresol purple (BCP) pH indicators was obtained from Eastman Kodak (Rochester, N.Y.). Chlorophenol red (CPR) (CAS NO. 4430-20-0) was obtained from Sigma-Aldrich (St. Louis, Mo.). The pH indicators were individually added to MRS broth to obtainfinal concentrations of BCP or CPR of 0.5 mM. After dissolving the pH indicator, the solutions were filter-sterilized.
(§4) Bacterial cultures were prepared by inoculating pure cultures into tryptic soy broth or MRS broth. The inoculated broth was incubated overnight at 25° C. The overnight cultures were diluted in the MRS broth (containing bromcresol purple) to obtain a suspension of approximately 10-100 colony-forming units (CFU) per milliliter. […] Inoculated plates were incubated at temperatures at 25°, 30° and 32° C., respectively. The plates were visually inspected for signs of bacterial growth.
(§5) A concentrated solution of sterile chlorophenol red was added to the MRS diluent as described in Example 2. A concentrated solution of sterile dipotassium phosphate (pH 7.0+/−0.2) was added to the MRS diluent to provide an additional 28 mM phosphate buffer in the diluent. Lactic acid bacterial cultures were prepared and diluted into the MRS/chlorophenol red solution as described in Example 1 with the exception that S. oralis was not tested in this experiment. […] The plates were incubated at 30° C. and the plates were visually inspected for signs of bacterial growth.
as §5, with “provide and” for “provide an”

[2] = tested on: S. oralis; assay type: cell-based, Streptococcus oralis; conditions: Example 1; indicator 0.02 g/l or 0.04 g/l; buffer addition None; 25 C, 30 C; 40-72 hr
Text: as §1, §2, §3, §4
A concentrated solution of sterile chlorophenol red was added to the MRS diluent as described in Example 2. […]

[3] = tested on: Leuconostoc; assay type: cell-based, Leuconostoc mesenteroides; conditions: 30 C
Text: as §1, §2, §3, §4, §5
as §5, with “provide and” for “provide an”

[4] = tested on: Weissella; assay type: cell-based, Weissella viridescens; conditions: 30 C
Text: as §1, §2, §3, §4, §5
as §5, with “provide and” for “provide an”

[5] = tested on: L. lactis subspecies lactis; assay: Colony appearance on thin film culture devices containing pH indicators (MRS/Letheen diluent); assay type: cell-based, Lactococcus lactis subspecies lactis; conditions: indicator 0.5 mM
Text: (§6) The aliquot were separately filter-sterilized.

[6] = tested on: L. mesenteroides; assay: as above; assay type: cell-based, Leuconostoc mesenteroides; conditions: indicator 0.5 mM
Text: as §6

[7] = tested on: Lactobacillus brevis; assay: Detection of lactic acid bacteria with Nystatin on Plate I; assay type: cell-based; conditions: 500 U/mL Nystatin, 28 degrees Celsius, 48-144 hr, 99.9% CO2
Experimental: (§7) Overnight cultures of Lactobacillus brevis, Pediococcus damnosus and 5 strains of Saccharomyces cerevisiae were grown in MRS broth (bacteria cultures) or yeast peptone dextrose (YPD) broth (yeast cultures). These cultures were serially diluted, yielding suspensions that contained approximately 100 cfu/mL of the organisms. A second series of suspensions were prepared and 500 U/mL Nystatin (CAS No. 1400-61-9 from Sigma) were added to the suspensions. A stock solution was prepared by adding Nystatin solids to 100% ethanol to make a solution of 25,000 U/mL which was then added to the bacteria/yeast suspensions to obtain the desired Nystatin concentration. One milliliter of each of the different solutions was then inoculated onto Plate I. The inoculated plates were incubated at 28 degrees Celsius for 48-144 hr in a 99.9% CO2 incubator.

[8] = tested on: Pediococcus damnosus; assay: as above; assay type: cell-based; conditions: 500 U/mL Nystatin, 28 degrees Celsius, 48-144 hr, 99.9% CO2
Experimental: as §7

[9] = tested on: Saccharomyces cerevisiae; assay: as above; assay type: cell-based; conditions: 500 U/mL Nystatin, 28 degrees Celsius, 48-144 hr, 99.9% CO2
Experimental: as §7

[10] = tested on: Lactobacillus brevis; assay: Colony growth with cycloheximide on Plate I; assay type: cell-based; conditions: with cycloheximide 100 ppm, 28° C., 48 hr, 99.9% carbon dioxide
Experimental: (§8) Overnight cultures of Lactobacillus brevis in MRS broth and Saccharomyces cerevisiae in yeast peptone dextrose (YPD) broth were prepared as described in Example 7. The cultures were serially diluted to obtain suspensions, each containing approximately 100 cfu/ml of the individual species (either L. brevis or S. cerevisiae). A third suspension was prepared containing 100 cfu/mL total of both species. A second set of 3 suspensions was prepared in the same manner (only L. brevis, only S. cerevisiae, and both organisms) except that each final solution also contained 100 ppm (10 mg/mL) cycloheximide ((CAS No. 66-81-9), sold under the tradename Actidione and obtained from Sigma (Fluka). The cycloheximide was added by using a stock solution of cycloheximide prepared by dissolving 100 ppm of cycloheximide to Butterfield's Buffer and sterile filtering the solution through a 0.2 μm filter. The stock solution was added to the diluent buffer.
(§9) One milliliter of each of the bacterial suspensions was used to inoculate Plate I. The plates were incubated at 28° C. for 48 hr in an incubator having an environment of 99.9% carbon dioxide. Growth indicates the presence of colonies.

[11] = tested on: Saccharomyces cerevisiae; assay: Colony growth with cycloheximide on Plate I; assay type: cell-based
Experimental: as §8, with “A second set of 3 suspensions was prepared in the same manner (only L. brevis, only S. cerevisiae, and both organisms) except that each final solution also contained 100 ppm (10 mg/mL) cycloheximide ((CAS No. 66-81-9), sold under the tradename Actidione and obtained from Sigma (Fluka).” left out
as §9

[12] = tested on: Lactobacillus brevis and Saccharomyces; assay: Colony growth with cycloheximide on Plate I; assay type: cell-based, Lactobacillus brevis and Saccharomyces cerevisiae
Experimental: as §8, with “A second set of 3 suspensions was prepared in the same manner (only L. brevis, only S. cerevisiae, and both organisms) except that each final solution also contained 100 ppm (10 mg/mL) cycloheximide ((CAS No. 66-81-9), sold under the tradename Actidione and obtained from Sigma (Fluka).” left out
as §9

[13] = Example 1, indicator 0.02 g/l or 0.04 g/l, buffer addition None, 25 C, 18-24 hr
[14] = Example 1, indicator 0.02 g/l or 0.04 g/l, buffer addition None, 25 C, 40-72 hr
[15] = Example 2, indicator 0.21 g/l, buffer addition None, 18-24 hr
[16] = Example 2, indicator 0.21 g/l, buffer addition None, 40-72 hr
[17] = Example 3, indicator 0.21 g/l, buffer addition 28 mM, 18-24 hr
[18] = Example 3, indicator 0.21 g/l, buffer addition 28 mM, 40-72 hr
[19] = with cycloheximide 100 ppm, 28° C., 48 hr, 99.9% carbon dioxide

In the case of `Cc1cc(C2(c3cc(C)c(O)c(Br)c3)OS(=O)(=O)c3ccccc32)cc(Br)c1O` [Bromcresol Purple, Bromcresol purple], the Observations [1, 13] is reported as “L. lactis subspecies lactis: Colonies with acid zones. No gas bubbles”, the Observations [1, 14] is reported as “L. lactis subspecies lactis: Colonies with acid zones. No gas bubbles” and the Observations [2] is reported as “S. oralis: Acid zones. No visible colonies or gas bubbles”. For the same compound, the Observations [3, 14] was “Leuconostoc: Acid zones. No visible colonies or gas bubbles”, the Observations [4, 13] was “Weissella: Acid zones without visible colonies. No gas bubbles” and the Observations [4, 14] was “Weissella: Acid zones and gas bubbles. Pale colonies”.

For `O=S1(=O)OC(c2ccc(O)c(Cl)c2)(c2ccc(O)c(Cl)c2)c2ccccc21` [Chlorophenol Red, Chlorophenol red], the Observations [1, 15] was “Acid zones were visible for all three microorganisms tested”, the Observations [1, 16] was “L. lactis subspecies lactis: Colonies with acid zones and gas bubbles” and the Observations [1, 17] was “Acid zones visible with all three strains”. The Observations [1, 18] was “L. lactis subspecies lactis: Colonies with acid zones and gas bubbles”, the Observations [3, 15] was “Acid zones were visible for all three microorganisms tested” and the Observations [3, 16] was “Leuconostoc: Acid zones and gas bubbles. No visible colonies”. The Observations [3, 17] was “Acid zones visible with all three strains”, the Observations [3, 18] was “Leuconostoc: Acid zones. No visible colonies” and the Observations [4, 15] was “Acid zones were visible for all three microorganisms tested”. For the same compound, the Observations [4, 16] was “Weissella: Colonies with acid zones and gas bubbles”, the Observations [4, 17] was “Acid zones visible with all three strains” and the Observations [4, 18] was “Weissella: Colonies with acid zones and gas bubbles”. The “24-hour Results” value ([5]; 32° C.) was “Colonies; yellow zones”, the “48-hour Results” value ([5]; 32° C.) was “Colonies; yellow zones” and the “24-hour Results” value ([6]; 32° C.) was “Yellow zones”. For the same compound, the “48-hour Results” value ([6]; 32° C.) was “Yellow zones, gas”.

`C[C@@H]1[C@H](O)[C@@H](C)/C=C/C=C/CC/C=C/C=C/C=C/C=C/C(O[C@H]2O[C@H](C)[C@@H](O)[C@H](N)[C@@H]2O)CC2O[C@](O)(CC(O)C(O)CCC(O)CC(O)CC(O)CC(=O)O[C@H]1C)CC(O)C2C(=O)O` (stereo partly drawn) [Nystatin] was tested, and the colony growth [7] was “grew whether Nystatin was present or not”, the colony growth [8] was “grew whether Nystatin was present or not” and the colony growth [9] was “grew only on the plates that did not contain Nystatin”.

For `O=C1C(Br)=CC(=C(c2cc(Br)c(O)c(Br)c2)c2ccccc2S(=O)(=O)[O-])C=C1Br.[Na+]` [Bromphenol Blue, Bromphenol Blue sodium salt], the “48-hour Results” value ([5]; 25° C.) was “Pale colonies”, the “72-hour Results” value ([5]; 25° C.) was “Colonies, gas” and the “48-hour Results” value ([5]; 32° C.) was “pale colonies”. For the same compound, the “72-hour Results” value ([5]; 32° C.) was “Colonies, gas”, the “48-hour Results” value ([6]; 32° C.) was “Pale colonies, gas bubbles” and the “72-hour Results” value ([6]; 32° C.) was “Pale colonies, gas bubbles”.

`Cc1c(C2(c3cc(Br)c(O)c(Br)c3C)OS(=O)(=O)c3ccccc32)cc(Br)c(O)c1Br` [Bromocresol Green, Bromocresol Green sodium salt] was tested, and the “24-hour Results” value ([5]; 32° C.) was “Pale yellow zones”, the “24-hour Results” value ([6]; 25° C.) was “Colonies, yellow zones” and the “24-hour Results” value ([6]; 32° C.) was “Colonies, yellow zones”.

In the case of `C[C@@H]1C[C@@H]([C@H](O)CC2CC(=O)NC(=O)C2)C(=O)[C@@H](C)C1` [cycloheximide], the “Observation (colony growth)” value [10] is reported as “Growth - 1 distinct colony morphology”, the growth ([11]; cycloheximide 5, 10, 40 and 100 ppm, only S. cerevisiae) is reported as “no growth” and the “Observation (colony growth)” value [11, 19] is reported as “No growth”. The colony morphology ([12]; cycloheximide 5, 10, 40 and 100 ppm) was “one distinct colony morphology” and the “Observation (colony growth)” value [12, 19] was “Growth - 1 distinct colony morphology”.
